According to ChEMBL document CHEMBL1147855, “Synthesis and evaluation of sulfonylurea derivatives as novel antimalarials” (Eur J Med Chem, 2007):

Assays:
Plasmodium falciparum = assay: Antimalarial activity against chloroquine-resistant Plasmodium falciparum W2 after 48 hrs by FACS; format: functional, organism-based; details: W2, 48 h
Plasmodium berghei = assay: Antimalarial activity against Plasmodium berghei ANKA at 20 mg/kg intraperitoneal dose as reduced parasitaemia by Peter's assay; format: functional; design: scale not given: the % may be the effect or the level left
Mus musculus = assay: Survival of NIH mice (Mus musculus) infected with Plasmodium berghei ANKA infected erythrocytes at 20 mg/kg, intraperitoneal after 4 days by Peter's test; format: functional
[1] = Inhibition of hemoglobin hydrolysis in mouse erythrocytes at 5 mM after 18 hrs relative to control; format: cell-based; details: Erythrocyte

Compound | IC50 (Plasmodium falciparum) | Activity (Plasmodium berghei) | Survival (Mus musculus) | inhibition at 5000 µM [1]
Cc1ccc(S(=O)(=O)NC(=O)Nc2ccc(C(=O)/C=C/c3ccc4c(c3)OCO4)cc2)cc1 | 9.6 µM | – | – | –
COc1cc(/C=C/C(=O)c2ccc(NC(=O)NS(=O)(=O)c3ccc(C)cc3)cc2)cc(OC)c1OC | 8.8 µM | – | – | –
O=C(Nc1ccc(C(=O)/C=C/c2ccc(F)cc2F)cc1)NS(=O)(=O)c1ccc(Cl)cc1 | 2.1 µM | 5.2% | 3 days | –
O=C(Nc1ccc(C(=O)/C=C/c2ccc3c(c2)OCO3)cc1)NS(=O)(=O)c1ccc(Cl)cc1 | 9.7 µM | 3.4% | 2.16 days | 50.6%
COc1cc(/C=C/C(=O)c2ccc(NC(=O)NS(=O)(=O)c3ccc(Cl)cc3)cc2)cc(OC)c1OC | 9.4 µM | 8% | 1.83 days | 36.7%
Cc1ccc(S(=O)(=O)NC(=O)Nc2ccc(C(=O)/C=C/c3ccc(F)cc3)cc2)cc1 | 10 µM | – | – | –
COc1cc2cc(/C=C/C(=O)c3ccc(NC(=O)NS(=O)(=O)c4ccc(C)cc4)cc3)c(Cl)nc2cc1OC | 10 µM | – | – | –
CCN(CC)CCCC(C)Nc1ccnc2cc(Cl)ccc12 (configuration not stated) [CHLOROQUINE] | – | 3.66% | – | –
Cc1ccc(S(=O)(=O)NC(=O)Nc2ccc(C(=O)/C=C/c3cc4ccccc4nc3Cl)cc2)cc1 | 9.6 µM | – | – | –
CC(=O)N[C@@H](CC(C)C)C(=O)N[C@@H](CC(C)C)C(=O)N[C@H](C=O)CCCNC(=N)N [LEUPEPTIN] | – | – | – | 87%
CC(C)CC(=O)N[C@H](C(=O)N[C@H](C(=O)N[C@@H](CC(C)C)[C@@H](O)CC(=O)N[C@@H](C)C(=O)N[C@@H](CC(C)C)[C@@H](O)CC(=O)O)C(C)C)C(C)C [PEPSTATIN] | – | – | – | 91.9%
O=C(Nc1ccc(C(=O)/C=C/c2ccc(F)cc2)cc1)NS(=O)(=O)c1ccc(Cl)cc1 | 10 µM | 10.6% | 1 days | 34.5%
Cc1ccc(S(=O)(=O)NC(=O)Nc2ccc(C(=O)/C=C/c3ccc(F)cc3F)cc2)cc1 | 1.2 µM | 15.2% | 1 days | 90.3%
